Laboratory results from patent publication US9707305B2, “Formulas for diagnosing and treating hormone-dependent cancers and cancers of the organs responsible for steroid hormone synthesis” (Commissariat à l'énergie atomique et aux énergies …, priority 2011, dated 2017).

Assay: Biodistribution of the nano-emulsion of Example 1.1 (radioactivity and fluorescence per organ)
Type: in vivo
Protocol: In the following examples, the radioactivity was counted with the TRiCarb Counter (Ref: Packard, Liquid Scintillation Analyzers; Models 2200CA).
Fluobeam 700 (Fluoptics) is the apparatus with which the whole of the organs from the biodistribution were analyzed in fluorescence as well as the one with which the biodistribution kinetics of the nano-emulsions were established in vivo. This imaging system allows viewing of the fluorescence in spectral bands from 700 to 850 nm for a 650 nm excitation. The apparatus consists of an electric case containing the laser of class 3B, its power supply and an optical head containing the CCD camera.
The nano-emulsions of Example 1 were injected into FVB female and male mice. As a comparison, a mixture of three tracers ([3H]CHE, [14C]CO and DiD) (not formulated as a nano-emulsion) was injected in order to observe the distribution of the tracers in the absence of droplets being used as a distribution carrier.
Tables 6 to 14 provide the biodistribution results of each tracer ([3H]CHE, [14C]CO and DiD) expressed as a percentage of the dose injected per gram of tissue (or [3H]CHE and [14C]CO) or as fluorescence intensity (for DiD) depending on the organ of the mouse, 15 minutes (Table 6), 2 hours (Table 7), 4 hours (Table 8), 6 hours (Table 9), 16 hours (Table 10), 24 hours (Table 11), 72 hours (Table 12), 120 hours (Table 13) and 168 hours (Table 14), after injection into an FVB female mouse of the nano-emulsion of Example 1.1. (nano-emulsion according to the invention comprising the three tracers ([3H]CHE, [14C]CO and DiD).

[1] = 15 min after injection of nano-emulsion of Example 1.1, FVB female mouse
[2] = 2 h after injection of nano-emulsion of Example 1.1, FVB female mouse
[3] = 4 h after injection of nano-emulsion of Example 1.1, FVB female mouse
[4] = 16 h (Table 9 head) after injection of nano-emulsion of Example 1.1, FVB female mouse
[5] = 24 h (Table 10 head) after injection of nano-emulsion of Example 1.1, FVB female mouse
[6] = 48 h (Table 11 head) after injection of nano-emulsion of Example 1.1, FVB female mouse
[7] = 72 h after injection of nano-emulsion of Example 1.1, FVB female mouse
[8] = 120 h after injection of nano-emulsion of Example 1.1, FVB female mouse
[9] = 168 h after injection of nano-emulsion of Example 1.1, FVB female mouse

CCCCCCCCCCCCCCCCO[C@H]1CC[C@@]2(C)C(=CC[C@H]3[C@@H]4CC[C@H]([C@H](C)CCCC(C)C)[C@@]4(C)CC[C@@H]32)C1 [[3H]CHE, cholesteryl hexadecylether]
biodistribution, Adrenal glands (MEAN) [1]: 10.60 % of injected dose per gram of | biodistribution, Brain (MEAN) [1]: 0.476 % of injected dose per gram of | biodistribution, Fat (MEAN) [1]: 1.10 % of injected dose per gram of | biodistribution, Heart (MEAN) [1]: 8.303 % of injected dose per gram of | biodistribution, Intestine (MEAN) [1]: 1.71 % of injected dose per gram of | biodistribution, Kidney (MEAN) [1]: 4.09 % of injected dose per gram of | biodistribution, Liver (MEAN) [1]: 8.26 % of injected dose per gram of | biodistribution, Lung (MEAN) [1]: 3.91 % of injected dose per gram of | biodistribution, Muscle (MEAN) [1]: 0.675 % of injected dose per gram of | biodistribution, Ovary (MEAN) [1]: 5.38 % of injected dose per gram of | biodistribution, Pancreas (MEAN) [1]: 1.233 % of injected dose per gram of | biodistribution, Salivary glands (MEAN) [1]: 1.157 % of injected dose per gram of | biodistribution, Spleen (MEAN) [1]: 3.63 % of injected dose per gram of | biodistribution, Uterus (MEAN) [1]: 0.90 % of injected dose per gram of | biodistribution, Adrenal glands (MEAN) [2]: 21.12 % of injected dose per gram of | biodistribution, Brain (MEAN) [2]: 0.26 % of injected dose per gram of | biodistribution, Fat (MEAN) [2]: 0.76 % of injected dose per gram of | biodistribution, Heart (MEAN) [2]: 4.64 % of injected dose per gram of | biodistribution, Intestine (MEAN) [2]: 2.44 % of injected dose per gram of | biodistribution, Kidneys (MEAN) [2]: 3.83 % of injected dose per gram of | biodistribution, Liver (MEAN) [2]: 31.09 % of injected dose per gram of | biodistribution, Lung (MEAN) [2]: 4.44 % of injected dose per gram of | biodistribution, Muscle (MEAN) [2]: 0.45 % of injected dose per gram of | biodistribution, Ovary (MEAN) [2]: 29.28 % of injected dose per gram of | biodistribution, Pancreas (MEAN) [2]: 1.43 % of injected dose per gram of | biodistribution, Salivary glands (MEAN) [2]: 1.42 % of injected dose per gram of | biodistribution, Spleen (MEAN) [2]: 5.10 % of injected dose per gram of | biodistribution, Uterus (MEAN) [2]: 2.23 % of injected dose per gram of | biodistribution, Adrenal glands (MEAN) [3]: 28.13 % of injected dose per gram of | biodistribution, Brain (MEAN) [3]: 0.19 % of injected dose per gram of | biodistribution, Fat (MEAN) [3]: 1.40 % of injected dose per gram of | biodistribution, Heart (MEAN) [3]: 4.94 % of injected dose per gram of | biodistribution, Intestine (MEAN) [3]: 2.46 % of injected dose per gram of | biodistribution, Kidney (MEAN) [3]: 2.51 % of injected dose per gram of | biodistribution, Liver (MEAN) [3]: 37.43 % of injected dose per gram of | biodistribution, Lungs (MEAN) [3]: 4.02 % of injected dose per gram of | biodistribution, Muscle (MEAN) [3]: 0.41 % of injected dose per gram of | biodistribution, Ovary (MEAN) [3]: 39.41 % of injected dose per gram of | biodistribution, Pancreas (MEAN) [3]: 1.01 % of injected dose per gram of | biodistribution, Salivary glands (MEAN) [3]: 1.09 % of injected dose per gram of | biodistribution, Spleen (MEAN) [3]: 5.00 % of injected dose per gram of | biodistribution, Uterus (MEAN) [3]: 1.69 % of injected dose per gram of | biodistribution, Adrenal glands (MEAN) [4]: 43.16 % of injected dose per gram of | biodistribution, Brain (MEAN) [4]: 0.13 % of injected dose per gram of | biodistribution, Fat (MEAN) [4]: 1.36 % of injected dose per gram of | biodistribution, Heart (MEAN) [4]: 3.49 % of injected dose per gram of | biodistribution, Intestine (MEAN) [4]: 4.87 % of injected dose per gram of | biodistribution, Kidney (MEAN) [4]: 2.06 % of injected dose per gram of | biodistribution, Liver (MEAN) [4]: 47.67 % of injected dose per gram of | biodistribution, Lungs (MEAN) [4]: 4.63 % of injected dose per gram of | biodistribution, Muscle (MEAN) [4]: 0.76 % of injected dose per gram of | biodistribution, Ovary (MEAN) [4]: 52.26 % of injected dose per gram of | biodistribution, Pancreas (MEAN) [4]: 1.17 % of injected dose per gram of | biodistribution, Salivary glands (MEAN) [4]: 1.27 % of injected dose per gram of | biodistribution, Spleen (MEAN) [4]: 7.48 % of injected dose per gram of | biodistribution, Uterus (MEAN) [4]: 3.91 % of injected dose per gram of | biodistribution, Adrenal glands (MEAN) [5]: 39.68 % of injected dose per gram of | biodistribution, Brain (MEAN) [5]: 0.09 % of injected dose per gram of | biodistribution, Fat (MEAN) [5]: 0.88 % of injected dose per gram of | biodistribution, Heart (MEAN) [5]: 3.53 % of injected dose per gram of | biodistribution, Intestine (MEAN) [5]: 2.78 % of injected dose per gram of | biodistribution, Kidney (MEAN) [5]: 1.50 % of injected dose per gram of | biodistribution, Liver (MEAN) [5]: 48.76 % of injected dose per gram of | biodistribution, Lung (MEAN) [5]: 3.21 % of injected dose per gram of | biodistribution, Muscle (MEAN) [5]: 0.46 % of injected dose per gram of | biodistribution, Ovary (MEAN) [5]: 38.06 % of injected dose per gram of | biodistribution, Pancreas (MEAN) [5]: 0.64 % of injected dose per gram of | biodistribution, Salivary glands (MEAN) [5]: 1.40 % of injected dose per gram of | biodistribution, Spleen (MEAN) [5]: 7.50 % of injected dose per gram of | biodistribution, Uterus (MEAN) [5]: 1.82 % of injected dose per gram of | biodistribution, Adrenal glands (MEAN) [6]: 42.26 % of injected dose per gram of | biodistribution, Brain (MEAN) [6]: 0.08 % of injected dose per gram of | biodistribution, Fat (MEAN) [6]: 1.05 % of injected dose per gram of | biodistribution, Heart (MEAN) [6]: 3.52 % of injected dose per gram of | biodistribution, Intestine (MEAN) [6]: 4.43 % of injected dose per gram of | biodistribution, Kidney (MEAN) [6]: 1.63 % of injected dose per gram of | biodistribution, Liver (MEAN) [6]: 58.43 % of injected dose per gram of | biodistribution, Lungs (MEAN) [6]: 3.91 % of injected dose per gram of | biodistribution, Muscle (MEAN) [6]: 0.36 % of injected dose per gram of | biodistribution, Ovary (MEAN) [6]: 36.42 % of injected dose per gram of | biodistribution, Pancreas (MEAN) [6]: 1.00 % of injected dose per gram of | biodistribution, Salivary glands (MEAN) [6]: 1.09 % of injected dose per gram of | biodistribution, Spleen (MEAN) [6]: 12.32 % of injected dose per gram of | biodistribution, Uterus (MEAN) [6]: 3.75 % of injected dose per gram of | biodistribution, Adrenal glands (MEAN) [7]: 36.92 % of injected dose per gram of | biodistribution, Brain (MEAN) [7]: 0.08 % of injected dose per gram of | biodistribution, Fat (MEAN) [7]: 0.85 % of injected dose per gram of | biodistribution, Heart (MEAN) [7]: 2.98 % of injected dose per gram of | biodistribution, Intestine (MEAN) [7]: 3.58 % of injected dose per gram of | biodistribution, Kidney (MEAN) [7]: 1.27 % of injected dose per gram of | biodistribution, Liver (MEAN) [7]: 39.73 % of injected dose per gram of | biodistribution, Lungs (MEAN) [7]: 2.95 % of injected dose per gram of | biodistribution, Muscle (MEAN) [7]: 0.22 % of injected dose per gram of | biodistribution, Ovary (MEAN) [7]: 25.11 % of injected dose per gram of | biodistribution, Pancreas (MEAN) [7]: 0.74 % of injected dose per gram of | biodistribution, Salivary glands (MEAN) [7]: 1.10 % of injected dose per gram of | biodistribution, Spleen (MEAN) [7]: 7.65 % of injected dose per gram of | biodistribution, Uterus (MEAN) [7]: 5.63 % of injected dose per gram of | biodistribution, Adrenal gland (MEAN) [8]: 41.92 % of injected dose per gram of | biodistribution, Brain (MEAN) [8]: 0.08 % of injected dose per gram of | biodistribution, Fat (MEAN) [8]: 0.68 % of injected dose per gram of | biodistribution, Heart (MEAN) [8]: 2.59 % of injected dose per gram of | biodistribution, Intestine (MEAN) [8]: 3.60 % of injected dose per gram of | biodistribution, Kidney (MEAN) [8]: 1.29 % of injected dose per gram of | biodistribution, Liver (MEAN) [8]: 39.13 % of injected dose per gram of | biodistribution, Lungs (MEAN) [8]: 3.30 % of injected dose per gram of | biodistribution, Muscle (MEAN) [8]: 0.27 % of injected dose per gram of | biodistribution, Ovary (MEAN) [8]: 16.92 % of injected dose per gram of | biodistribution, Pancreas (MEAN) [8]: 1.00 % of injected dose per gram of | biodistribution, Salivary glands (MEAN) [8]: 2.14 % of injected dose per gram of | biodistribution, Spleen (MEAN) [8]: 9.69 % of injected dose per gram of | biodistribution, Uterus (MEAN) [8]: 4.99 % of injected dose per gram of | biodistribution, Adrenal glands (MEAN) [9]: 29.30 % of injected dose per gram of | biodistribution, Brain (MEAN) [9]: 0.07 % of injected dose per gram of | biodistribution, Fat (MEAN) [9]: 0.99 % of injected dose per gram of | biodistribution, Heart (MEAN) [9]: 2.19 % of injected dose per gram of | biodistribution, Intestine (MEAN) [9]: 2.80 % of injected dose per gram of | biodistribution, Kidneys (MEAN) [9]: 1.44 % of injected dose per gram of | biodistribution, Liver (MEAN) [9]: 32.70 % of injected dose per gram of | biodistribution, Lungs (MEAN) [9]: 1.70 % of injected dose per gram of | biodistribution, Muscle (MEAN) [9]: 0.37 % of injected dose per gram of | biodistribution, Ovary (MEAN) [9]: 20.61 % of injected dose per gram of | biodistribution, Pancreas (MEAN) [9]: 0.79 % of injected dose per gram of | biodistribution, Salivary glands (MEAN) [9]: 2.01 % of injected dose per gram of | biodistribution, Spleen (MEAN) [9]: 10.71 % of injected dose per gram of | biodistribution, Uterus (MEAN) [9]: 4.86 % of injected dose per gram of
